In patent EP4603105A1, “PHARMACEUTICAL COMPOSITION CONTAINING CYCLIC COMPOUND HAVING SELECTIVE KRAS INHIBITORY EFFECT AGAINST HRAS AND NRAS” (CHUGAI SEIYAKU KABUSHIKI KAISHA, priority 2022, dated 2024):
*1 amine or outer side, *2 acyl side, *3 side chain or, on linkers, in order; H or OH if unused. Where a SMILES comes first, the peptide text is derived from it. Bridges are numbered along the chain shown (N, C = ends). [ ]: non-standard residue; d: D form. The star is where a group is joined. hPhe(3-Cl-4-CF3) = N[C@@H](CCc1ccc(C(F)(F)F)c(Cl)c1)C(=O)O; NPrPhe(4-CF3) = CCCN[C@@H](Cc1ccc(C(F)(F)F)cc1)C(=O)O; X46 = C=CCCN([C@@H](Cc1ccc(C)cc1)C(=O)[*:2])[*:1]; NMeGly(cPent) = CN[C@H](C(=O)O)C1CCCC1; NEtPhe = CCN[C@@H](Cc1ccccc1)C(=O)O; Hyp = O=C(O)[C@@H]1C[C@@H](O)CN1; NMeD = CN[C@@H](CC(=O)O)C(=O)O; NMeL = CN[C@@H](CC(C)C)C(=O)O; Morpholide = C1CN(*)CCO1; NMeA = CN[C@@H](C)C(=O)O; Ac5c = NC1(C(=O)O)CCCC1; Aze = O=C(O)[C@@H]1CCN1; NEtG = CCNCC(=O)O; Sar = CNCC(=O)O

Tests used:
[1] = target: GDP-bound NRAS wild-type protein (Homo sapiens, UniProt P01111); test: Binding to NRAS by surface plasmon resonance (SPR), KD and KD ratio to KRAS
GDP-bound NRAS wild-type protein, sequence (P01111 whole entry): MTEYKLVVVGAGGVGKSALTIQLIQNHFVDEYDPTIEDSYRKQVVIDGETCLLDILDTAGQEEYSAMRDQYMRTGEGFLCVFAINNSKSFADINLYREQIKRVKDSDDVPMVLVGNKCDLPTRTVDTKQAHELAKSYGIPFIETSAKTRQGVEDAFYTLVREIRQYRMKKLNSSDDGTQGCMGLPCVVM
How it was run: (§1)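 GDP-loaded biotinylated Avi-tag RAS proteins (E. coli-expressed) captured on a Biotin CAPture chip at ~100–300 RU; single-cycle kinetics at 30°C, 100 µL/min, 75 s injections of rising compound concentrations. HBS pH 7.4 running buffer with 1 mM DTT, 10 mM MgCl2, 10 µM GDP, 4% DMSO. KD from 1:1 binding fit.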

HRAS wild-type protein = HRAS wild-type protein (Homo sapiens, UniProt P01112); test: Binding to HRAS by surface plasmon resonance (SPR), KD and KD ratio to KRAS
HRAS wild-type protein, sequence (P01112 whole entry): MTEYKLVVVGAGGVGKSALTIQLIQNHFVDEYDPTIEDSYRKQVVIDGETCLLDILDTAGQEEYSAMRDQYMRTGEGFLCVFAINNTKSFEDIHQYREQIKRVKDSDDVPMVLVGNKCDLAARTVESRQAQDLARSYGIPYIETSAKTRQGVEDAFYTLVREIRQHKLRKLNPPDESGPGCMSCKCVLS
How it was run: as §1

[2] = test system: human lung cancer strain NCI-H441; assay type: cell-based
How it was run: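 Readout: […] after the ATP-based reagent. Compound: serial dilutions in dimethyl sulfoxide.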

[3] = ratio of the KD value with respect to GDP-bound NRAS wild-type protein to the KD value with respect to KRAS
[4] = ratio of the KD value with respect to HRAS wild-type protein to the KD value with respect to KRAS
[5] = ratio of KD for GDP-bound NRAS wild-type protein to KD for KRAS
[6] = ratio of KD for HRAS wild-type protein to KD for KRAS

SMILES | NRAS /KRAS [1, 3] | HRAS /KRAS (HRAS wild-type protein; [4]) | IC50 [2] | NRAS /KRAS [1, 5] | HRAS /KRAS (HRAS wild-type protein; [6]) | NRAS /KRAS ([1]; ratio of KD value for GDP-bound NRAS wild-type protein to KD value for KRAS (SPR)) | HRAS /KRAS (HRAS wild-type protein; ratio of KD value for HRAS wild-type protein to KD value for KRAS (SPR))
CCCN1C(=O)CN(C)C(=O)[C@@H]2CCN2C(=O)[C@H]([C@@H](C)CC)NC(=O)[C@H](CC(C)C)N(C)C(=O)C[C@@H](C(=O)N(C)C)N(C)C(=O)[C@H](C2CCCC2)N(C)C(=O)C2(CCCC2)NC(=O)[C@@H]2C[C@@H](OCC)CN2C(=O)[C@H](CCc2ccc(C(F)(F)F)c(Cl)c2)NC(=O)CN(C)C(=O)[C@@H]1Cc1ccc(C(F)(F)F)cc1 [PP0433] ([NMeL]I[Aze][Sar][NPrPhe(4-CF3)][Sar][hPhe(3-Cl-4-CF3)][Hyp](Et)[Ac5c][NMeGly(cPent)][NMeD]-NMe2; lactam N-11) | B (a compound having 3 or more and less than 10 is denoted as B) | B (a compound having 3 or more and less than 10 is denoted as B) | 11 nM |  |  |  | 
C=CCCN1C(=O)CN(C)C(=O)CN(C)C(=O)[C@H]([C@@H](C)CC)NC(=O)[C@H](CC(C)C)N(C)C(=O)C[C@@H](C(=O)N2CCOCC2)N(C)C(=O)[C@H](C2CCCC2)N(C)C(=O)C2(CCCC2)NC(=O)[C@@H]2CCCN2C(=O)[C@H](CCc2ccc(C(F)(F)F)c(Cl)c2)NC(=O)CN(C)C(=O)[C@@H]1Cc1ccc(C)cc1 [PP0101] ([NMeL]I[Sar][Sar][X46][Sar][hPhe(3-Cl-4-CF3)]P[Ac5c][NMeGly(cPent)][NMeD]-Morpholide; lactam N-11) |  |  | 10.4 nM | B (a compound having 3 or more and less than 10 is denoted as B) | C (A compound having a KD ratio of 0.1 or more and less than 3 is denoted as C) |  | 
CCO[C@@H]1C[C@H]2C(=O)NC3(CCCC3)C(=O)N(C)[C@@H](C3CCCC3)C(=O)N(C)[C@H](C(=O)N3CCOCC3)CC(=O)N(C)[C@@H](CC(C)C)C(=O)N[C@@H]([C@@H](C)CC)C(=O)N(C)CC(=O)N(C)[C@H]3CC(C)=CCN(C3=O)[C@@H](Cc3ccc(C(F)(F)F)cc3)C(=O)N(C)CC(=O)N[C@@H](CCc3cc(F)c(C(F)(F)F)c(F)c3)C(=O)N2C1 [PP1038] |  |  | 188 nM | C (A compound having a KD ratio of 0.1 or more and less than 3 is denoted as C) | C (A compound having a KD ratio of 0.1 or more and less than 3 is denoted as C) |  | 
CCO[C@@H]1C[C@H]2C(=O)NC3(CCC3)C(=O)N(C)[C@@H](C3CCCC3)C(=O)N(C)[C@H](C(=O)N3CCOCC3)CC(=O)N(C)[C@@H](CC3CCCC3)C(=O)N[C@@H]([C@@H](C)CC)C(=O)N(C)CC(=O)N(C)[C@H]3CCCCN(C3=O)[C@@H](Cc3ccc(C(F)(F)F)cc3)C(=O)N(C)CC(=O)N[C@@H](CCc3cc(F)c(C(F)(F)F)c(F)c3)C(=O)N2C1 [PP0715] | C (A compound having a KD ratio of 0.1 or more and less than 3 is denoted as C) | B (a compound having 3 or more and less than 10 is denoted as B) | 4.5 nM |  |  |  | 
CCO[C@@H]1C[C@H]2C(=O)NC3(CC(C)(C)C3)C(=O)N(C)[C@@H](C(CC)CC)C(=O)N(C)[C@H](C(=O)N(C)C)CC(=O)N(C)[C@H]3CCCCCCc4ccc(cc4)C[C@@H](C(=O)N(C)CC(=O)N[C@@H](CCc4ccc(C(F)(F)F)c(OC)c4)C(=O)N2C1)N1CC/C=C\C[C@@H](C1=O)N(C)C(=O)CN(C)C(=O)[C@H]([C@@H](C)CC)NC3=O [PP3032] |  |  | 2.1 nM | AA (a compound having 20 or more is denoted as AA) | A (a compound having 10 or more and less than 20 is denoted as A) |  | 
CCCN1C(=O)[C@@H]2CCN2C(=O)CN(CC)C(=O)[C@H]([C@@H](C)CC)NC(=O)[C@H](CC(C)C)N(C)C(=O)C[C@@H](C(=O)N2CCOCC2)N(C)C(=O)[C@H](C2CCCC2)N(C)C(=O)C2(CCCC2)NC(=O)[C@@H]2CCCN2C(=O)[C@H](CCc2ccc(C(F)(F)F)c(Cl)c2)NC(=O)CN(C)C(=O)[C@@H]1Cc1ccc(C(F)(F)F)cc1 [PP0259] ([NMeL]I[NEtG][Aze][NPrPhe(4-CF3)][Sar][hPhe(3-Cl-4-CF3)]P[Ac5c][NMeGly(cPent)][NMeD]-Morpholide; lactam N-11) |  |  | 10.2 nM | C (A compound having a KD ratio of 0.1 or more and less than 3 is denoted as C) | B (a compound having 3 or more and less than 10 is denoted as B) |  | 
CC[C@H](C)[C@@H]1NC(=O)[C@H](CC(C)C)N(C)C(=O)C[C@@H](C(=O)N2CCOCC2)N(C)C(=O)[C@H](C2CCCC2)N(C)C(=O)C2(CCCC2)NC(=O)[C@@H]2CCCN2C(=O)[C@H](CCc2ccc(C(F)(F)F)c(Cl)c2)NC(=O)CN(C)C(=O)[C@H](Cc2ccccc2)N(CC)C(=O)[C@@H]2CCN2C(=O)[C@H](C)N(C)C1=O [PP0215] ([NMeL]I[NMeA][Aze][NEtPhe][Sar][hPhe(3-Cl-4-CF3)]P[Ac5c][NMeGly(cPent)][NMeD]-Morpholide; lactam N-11) |  |  | 4.8 nM | C (A compound having a KD ratio of 0.1 or more and less than 3 is denoted as C) | C (A compound having a KD ratio of 0.1 or more and less than 3 is denoted as C) |  | 
CCCC[C@H]1C(=O)N[C@@H]([C@@H](C)CC)C(=O)N(C)CC(=O)N(C)[C@H]2C/C=C\CCN(C2=O)[C@@H](Cc2ccc(C(F)(F)F)cc2)C(=O)N(C)CC(=O)N[C@@H](CCc2cc(F)c(C(F)(F)F)c(F)c2)C(=O)N2C[C@H](OCC)C[C@H]2C(=O)NC2(CC(C)(C)C2)C(=O)N(C)[C@@H](C2CCCC2)C(=O)N(C)[C@H](C(=O)N(C)CC)CC(=O)N1C [PP2806] |  |  | 11.3 nM | A (a compound having 10 or more and less than 20 is denoted as A) | A (a compound having 10 or more and less than 20 is denoted as A) |  | 
CCO[C@@H]1C[C@H]2C(=O)NC3(CC(C)(C)C3)C(=O)N(C)[C@@H](C(CC)CC)C(=O)N(C)[C@H](C(=O)N(C)C)CC(=O)N(C)[C@@H](CC(C)C)C(=O)N[C@@H]([C@@H](C)CC)C(=O)N(C)CC(=O)N(C)[C@H]3C/C=C\CCN(C3=O)[C@@H](Cc3ccc(C)cc3)C(=O)N(C)CC(=O)N[C@@H](CCc3ccc(Cl)c(Cl)c3)C(=O)N2C1 [PP2185] | AA (a compound having 20 or more is denoted as AA) | A (a compound having 10 or more and less than 20 is denoted as A) | 36.1 nM |  |  |  | 
CCO[C@@H]1C[C@H]2C(=O)NC3(CC(C)(C)C3)C(=O)N(C)[C@@H](C3CCCC3)C(=O)N(C)[C@H](C(=O)N(C)C)CC(=O)N(C)[C@@H](CC3CC3)C(=O)N[C@@H]([C@@H](C)CC)C(=O)N(C)CC(=O)N(C)[C@H]3C/C=C\CCN(C3=O)[C@@H](Cc3ccc(C(F)(F)F)cc3)C(=O)N(C)CC(=O)N[C@@H](CCc3cc(F)c(Cl)c(F)c3)C(=O)N2C1 [PP1759] |  |  | 6.2 nM |  |  | A (a compound having 10 or more and less than 20 is denoted as A) | A (a compound having 10 or more and less than 20 is denoted as A)
CCO[C@@H]1C[C@H]2C(=O)NC3(CC(C)(C)C3)C(=O)N(C)[C@@H](C3CCCC3)C(=O)N(C)[C@H](C(=O)N(C)CC)CC(=O)N(C)[C@@H](CC(C)C)C(=O)N[C@@H]([C@@H](C)CC)C(=O)N(C)CC(=O)N(C)[C@H]3C/C=C\CCN(C3=O)[C@@H](Cc3ccc(C(F)F)cc3)C(=O)N(C)CC(=O)N[C@@H](CCc3ccc(C(F)(F)F)c(Cl)c3)C(=O)N2C1 [PP2829] |  |  | 7.9 nM | A (a compound having 10 or more and less than 20 is denoted as A) | A (a compound having 10 or more and less than 20 is denoted as A) |  | 
CCO[C@@H]1C[C@H]2C(=O)NC3(CC(C)(C)C3)C(=O)N(C)[C@@H](C3CCCC3)C(=O)N(C)[C@H](C(=O)N(C)CC)CC(=O)N(C)[C@@H](C3CCC3)C(=O)N[C@@H]([C@@H](C)CC)C(=O)N(C)CC(=O)N(C)[C@H]3C/C=C\CCN(C3=O)[C@@H](Cc3ccc(C(F)(F)F)cc3)C(=O)N(C)CC(=O)N[C@@H](CCc3cc(F)c(C(F)(F)F)c(F)c3)C(=O)N2C1 [PP2038] | A (a compound having 10 or more and less than 20 is denoted as A) | A (a compound having 10 or more and less than 20 is denoted as A) | 5.5 nM |  |  |  | 
CCO[C@@H]1C[C@H]2C(=O)NC3(CCC3)C(=O)N(C)[C@@H](C3CCCC3)C(=O)N(CC)[C@H](C(=O)N3CCOCC3)CC(=O)N(C)[C@@H](CC(C)C)C(=O)N[C@@H]([C@@H](C)CC)C(=O)N(C)CC(=O)N(C)[C@H]3CCCCN(C3=O)[C@@H](Cc3ccc(C(F)(F)F)cc3)C(=O)N(C)CC(=O)N[C@@H](CCc3cc(F)c(C(F)(F)F)c(F)c3)C(=O)N2C1 [PP0648] | B (a compound having 3 or more and less than 10 is denoted as B) | B (a compound having 3 or more and less than 10 is denoted as B) | 20.8 nM |  |  |  | 
CCOC[C@H]1C(=O)N[C@@H]([C@@H](C)CC)C(=O)N(C)CC(=O)N(C)[C@H]2C/C=C\CCN(C2=O)[C@@H](Cc2ccc(C(F)(F)F)cc2)C(=O)N(C)CC(=O)N[C@@H](CCc2ccc(C(F)(F)F)c(OC)c2)C(=O)N2C[C@H](OCC)C[C@H]2C(=O)NC2(CC(C)(C)C2)C(=O)N(C)[C@@H](C2CCCC2)C(=O)N(C)[C@H](C(=O)N(C)CC)CC(=O)N1C [PP2014] | A (a compound having 10 or more and less than 20 is denoted as A) | A (a compound having 10 or more and less than 20 is denoted as A) | 6.9 nM |  |  |  | 
CC[C@H](C)[C@@H]1NC(=O)[C@@H]2CCCCCc3ccc(cc3)C[C@@H](C(=O)N(C)CC(=O)N[C@@H](CCc3ccc(C(F)(F)F)c(OC)c3)C(=O)N3C[C@H](OC(C)C)C[C@H]3C(=O)NC3(CC(C)(C)C3)C(=O)N(C)[C@@H](C3CCCC3)C(=O)N(C)[C@H](C(=O)N(C)C)CC(=O)N2C)N2CC/C=C\C[C@@H](C2=O)N(C)C(=O)CN(C)C1=O [PP3072] |  |  | 2.6 nM | A (a compound having 10 or more and less than 20 is denoted as A) | B (a compound having 3 or more and less than 10 is denoted as B) |  | 
